Reference: ChEMBL document CHEMBL1201862, “PubChem BioAssay data set” (2004)
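All cell lines were grown in 96-well plates and treated with compound for 48 hours. At the GI50, growth is halved.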 Active and inactive are the calls of the source. No stated cut-off is given here; in the data, active = GI50 up to about 1.1 µM and inactive = higher.

Assays:
Experiment in all cases: NCI tumour cell line growth inhibition, 48 h
HCT-116 = tested on: HCT-116
OVCAR-4 = tested on: OVCAR-4
LOX IMVI = tested on: LOX IMVI
HOP-62 = tested on: HOP-62
RPMI-8226 = tested on: RPMI-8226
SF-539 = tested on: SF-539
MCF7 = tested on: MCF7
COLO 205 = tested on: COLO 205
PC-3 = tested on: PC-3
TK-10 = tested on: TK-10
NCI-H460 = tested on: NCI-H460
UO-31 = tested on: UO-31
MDA-MB-435 = tested on: MDA-MB-435
EKVX = tested on: EKVX
HCT-15 = tested on: HCT-15
SF-268 = tested on: SF-268
SK-MEL-2 = tested on: SK-MEL-2
SK-MEL-5 = tested on: SK-MEL-5
HT-29 = tested on: HT-29
MDA-N = tested on: MDA-N

SMILES | GI50 (HCT-116) | GI50 (OVCAR-4) | GI50 (LOX IMVI) | GI50 (HOP-62) | GI50 (RPMI-8226) | GI50 (SF-539) | GI50 (MCF7) | GI50 (COLO 205) | GI50 (PC-3) | GI50 (TK-10) | GI50 (NCI-H460) | GI50 (UO-31) | GI50 (MDA-MB-435) | GI50 (EKVX) | GI50 (HCT-15) [µM] | GI50 (SF-268) | GI50 (SK-MEL-2) | GI50 (SK-MEL-5) | GI50 (HT-29) | GI50 (MDA-N)
CCOC(=O)c1c2c(n(Cc3ccccc3)c1C)C(=O)C(=O)c1ccccc1-2 | 0.235 µM (active) | 0.0794 µM (active) | 0.174 µM (active) | 0.238 µM (active) | 0.119 µM (active) | 0.24 µM (active) | 0.293 µM (active) | 0.705 µM (active) | 0.807 µM (active) | 0.64 µM (active) | 0.418 µM (active) | 0.906 µM (active) | 0.0612 µM (active) | 0.726 µM (active) | 0.366 | 0.415 µM (active) | 1.26 µM (inactive) | 0.295 µM (active) | 0.989 µM (active) | 
OCN(CO)c1ccc2c(c1)Cc1cc(F)ccc1-2 | 39.5 µM (inactive) | 17.8 µM (inactive) | 17.9 µM (inactive) | 44.1 µM (inactive) |  | 22.3 µM (inactive) | 18.6 µM (inactive) | 12.4 µM (inactive) | 16.7 µM (inactive) | 18.7 µM (inactive) | 24.7 µM (inactive) | 19.6 µM (inactive) | 18.1 µM (inactive) | 14.7 µM (inactive) | 19.2 | 23.8 µM (inactive) | 21 µM (inactive) | 11.2 µM (inactive) | 14.8 µM (inactive) | 
COc1cc(/C=C/C=C2\CC(C)C/C(=C\C=C\c3ccc(O)c(OC)c3)C2=O)ccc1O (configuration not stated) | 15 µM (inactive) | 4.83 µM (inactive) | 12.4 µM (inactive) | 17.4 µM (inactive) | 7.13 µM (inactive) | 22.1 µM (inactive) | 5.6 µM (inactive) | 16.7 µM (inactive) | 11.3 µM (inactive) | 3.05 µM (inactive) | 14.5 µM (inactive) | 5.06 µM (inactive) | 8.32 µM (inactive) | 10.3 µM (inactive) | 25.1 | 10.3 µM (inactive) | 17.1 µM (inactive) | 10.5 µM (inactive) | 4.08 µM (inactive) | 
CC1(C)OC(C(C)(C)O)C(C(C)(C)O)O1 (configuration not stated) | > 100 µM (inactive) | > 100 µM (inactive) | > 100 µM (inactive) | > 100 µM (inactive) | > 100 µM (inactive) | > 100 µM (inactive) | > 100 µM (inactive) | > 100 µM (inactive) | > 100 µM (inactive) | > 100 µM (inactive) | > 100 µM (inactive) | > 100 µM (inactive) |  | > 100 µM (inactive) | > 100 | > 100 µM (inactive) | > 100 µM (inactive) | > 100 µM (inactive) | > 100 µM (inactive) | > 100 µM (inactive)
CCOC(=O)C(NC(=O)CC(C)C)(Nc1ccc(S(=O)(=O)Nc2nc(C)cc(C)n2)cc1)C(F)(F)F (configuration not stated) | > 100 µM (inactive) | > 100 µM (inactive) | > 100 µM (inactive) | > 100 µM (inactive) | > 100 µM (inactive) | > 100 µM (inactive) |  | > 100 µM (inactive) | > 100 µM (inactive) | > 100 µM (inactive) | > 100 µM (inactive) | > 100 µM (inactive) | > 100 µM (inactive) | > 100 µM (inactive) | > 100 | > 100 µM (inactive) | > 100 µM (inactive) | > 100 µM (inactive) | > 100 µM (inactive) | > 100 µM (inactive)
COc1ccccc1/C=C1\SC(=S)N(/C=C2\C(=O)Oc3ccccc3C2=O)C1=O | 34.4 µM (inactive) | 33.2 µM (inactive) | 34.9 µM (inactive) |  |  | 29 µM (inactive) | 35.5 µM (inactive) | 24 µM (inactive) | 38.5 µM (inactive) | 28.1 µM (inactive) |  | 23.2 µM (inactive) | 25.6 µM (inactive) | 24.1 µM (inactive) | 28.1 | 33.3 µM (inactive) | 21.9 µM (inactive) | 20.5 µM (inactive) | 38.7 µM (inactive) | 33.4 µM (inactive)
CC(C)(C)c1ccc(O)c(C(c2ccc([N+](=O)[O-])cc2)c2cc(C(C)(C)C)ccc2O)c1 | 2.43 µM (inactive) | 1.85 µM (inactive) |  | 1.85 µM (inactive) | 2.37 µM (inactive) | 1.89 µM (inactive) | 2 µM (inactive) | 2.5 µM (inactive) | 1.85 µM (inactive) | 2.53 µM (inactive) |  | 1.95 µM (inactive) | 1.78 µM (inactive) | 1.97 µM (inactive) | 2.13 | 1.63 µM (inactive) | 1.81 µM (inactive) |  | 1.87 µM (inactive) | 
CC(=O)Nc1sccc1S(=O)(=O)c1ccc(Cl)cc1 | > 100 µM (inactive) | > 100 µM (inactive) |  |  | > 100 µM (inactive) | > 100 µM (inactive) | > 100 µM (inactive) | > 100 µM (inactive) | > 100 µM (inactive) | > 100 µM (inactive) | > 100 µM (inactive) | > 100 µM (inactive) | > 100 µM (inactive) | > 100 µM (inactive) | > 100 | > 100 µM (inactive) | > 100 µM (inactive) | > 100 µM (inactive) | > 100 µM (inactive) | 
O=c1c2nn[nH]c2nc2n1CC(c1ccccc1)S2 (configuration not stated) | > 100 µM (inactive) | > 100 µM (inactive) | > 100 µM (inactive) | > 100 µM (inactive) | > 100 µM (inactive) | > 100 µM (inactive) | > 100 µM (inactive) | > 100 µM (inactive) |  | > 100 µM (inactive) | > 100 µM (inactive) | 45.3 µM (inactive) | > 100 µM (inactive) | > 100 µM (inactive) | > 100 | > 100 µM (inactive) |  | > 100 µM (inactive) |  | > 100 µM (inactive)
CC(C)CC(N)C(=O)Nc1ccc2ccccc2c1 (configuration not stated) | > 100 µM (inactive) | 9.4 µM (inactive) | > 100 µM (inactive) | > 100 µM (inactive) | > 100 µM (inactive) | > 100 µM (inactive) | > 100 µM (inactive) | > 100 µM (inactive) | > 100 µM (inactive) | > 100 µM (inactive) |  | > 100 µM (inactive) |  | > 100 µM (inactive) | > 100 | > 100 µM (inactive) | > 100 µM (inactive) | > 100 µM (inactive) | > 100 µM (inactive) | > 100 µM (inactive)
COc1ccccc1N1C(=O)C2C3c4ccccc4C(OC(C)=O)(c4ccccc43)C2C1=O (configuration not stated) | 57.3 µM (inactive) | 30.4 µM (inactive) | > 100 µM (inactive) | 97.9 µM (inactive) | > 100 µM (inactive) | 72.1 µM (inactive) | 72.3 µM (inactive) | > 100 µM (inactive) | > 100 µM (inactive) | > 100 µM (inactive) | > 100 µM (inactive) | > 100 µM (inactive) |  | > 100 µM (inactive) | > 100 | 30.8 µM (inactive) |  | > 100 µM (inactive) | > 100 µM (inactive) | > 100 µM (inactive)
